Columns and labels:
[1] = In vivo kinetics experiment (radioactivity distribution); design: species or system Wistar male rat; conditions: rat, caudal vein
Summary of the method: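 Tissue radioactivity (% ID/g) and adrenal-to-blood, liver, kidney, small intestine, muscle and fat ratios determined at 10, 30 and 60 min post-dose. Tracers (approximately 1 to 3.7 MBq, saline with 1 w/v % ascorbic acid) injected i.v. into caudal vein of anesthetized 9-week male Wistar rats; organs excised, weighed, counted.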

[2] = Plasma stability evaluation (TLC analysis); assay type: in vitro ADME; conditions: 37° C., 60 minutes, TLC analysis
Summary of the method: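 TLC analysis, using each compound's synthesis conditions, judged stability after methanol was added and samples were centrifuged to remove protein. Beforehand, each tracer had spent 60 minutes at 37° C in pooled heparinized normal human plasma.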

[3] = system: human adrenal gland section expressing aldosterone-producing adenoma; assay: In vitro autoradiography using human adrenal adenoma; assay type: binding; conditions: section of FIG. 17(a)
Summary of the method: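 Autoradiography readout: PSL in equal-sized ROIs over adenoma (B2) and normal adrenal cortex (B1), expressed as B2/B1 and decay-corrected using half-life, applied activity and plate contact time. Tissue was surgically excised human adrenal, frozen and cut at 7 μm, incubated 10 min with 5-33 kBq/mL tracer in BSA-containing PBS, then imaged after 16-20 h exposure.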

Adrenal gland/blood ratio of radioactivity accumulation ([1]; 10 min after administration): 28.34 ± 5.95
Adrenal gland/fat ratio of radioactivity accumulation ([1]; 10 min after administration): 89.23 ± 14.22
Adrenal gland/kidney ratio of radioactivity accumulation ([1]; 10 min after administration): 5.85 ± 1.07
Adrenal gland/liver ratio of radioactivity accumulation ([1]; 10 min after administration): 3.02 ± 0.41
Adrenal gland/muscle ratio of radioactivity accumulation ([1]; 10 min after administration): 54.21 ± 12.64
Adrenal gland/small intestine ratio of radioactivity accumulation ([1]; 10 min after administration): 6.95 ± 1.48
Radioactivity distribution Adrenal gland ([1]; 10 min after administration): 9.09 ± 2.28 % ID/g
Radioactivity distribution Bladder (including urine) ([1]; 10 min after administration): 0.32 ± 0.15 % ID/g
Radioactivity distribution Blood ([1]; 10 min after administration): 0.32 ± 0.01 % ID/g
Radioactivity distribution Fat ([1]; 10 min after administration): 0.10 ± 0.01 % ID/g
Radioactivity distribution Heart ([1]; 10 min after administration): 0.63 ± 0.07 % ID/g
Radioactivity distribution Kidney ([1]; 10 min after administration): 1.54 ± 0.11 % ID/g
Radioactivity distribution Large intestine ([1]; 10 min after administration): 0.19 ± 0.00 % ID/g
Radioactivity distribution Liver ([1]; 10 min after administration): 2.98 ± 0.35 % ID/g
Radioactivity distribution Lung ([1]; 10 min after administration): 1.06 ± 0.09 % ID/g
Radioactivity distribution Muscle (lower limbs) ([1]; 10 min after administration): 0.17 ± 0.00 % ID/g
Radioactivity distribution Remaining whole body ([1]; 10 min after administration): 0.27 ± 0.01 % ID/g
Radioactivity distribution Small intestine ([1]; 10 min after administration): 1.30 ± 0.05 % ID/g
Radioactivity distribution Spleen ([1]; 10 min after administration): 5.26 ± 1.78 % ID/g
Radioactivity distribution Stomach ([1]; 10 min after administration): 1.03 ± 0.28 % ID/g
Radioactivity distribution Testis ([1]; 10 min after administration): 0.07 ± 0.02 % ID/g
Radioactivity distribution Thyroid gland ([1]; 10 min after administration): 3.54 ± 0.37 % ID/g
Radioactivity distribution Whole brain ([1]; 10 min after administration): 0.02 ± 0.00 % ID/g
Adrenal gland/blood ratio of radioactivity accumulation ([1]; 30 min after administration): 40.26 ± 12.64
Adrenal gland/fat ratio of radioactivity accumulation ([1]; 30 min after administration): 147.73 ± 74.06
Adrenal gland/kidney ratio of radioactivity accumulation ([1]; 30 min after administration): 17.90 ± 4.66
Adrenal gland/liver ratio of radioactivity accumulation ([1]; 30 min after administration): 13.82 ± 3.67
Adrenal gland/muscle ratio of radioactivity accumulation ([1]; 30 min after administration): 110.91 ± 25.83
Adrenal gland/small intestine ratio of radioactivity accumulation ([1]; 30 min after administration): 9.24 ± 1.46
Radioactivity distribution Adrenal gland ([1]; 30 min after administration): 16.93 ± 3.32 % ID/g
Radioactivity distribution Bladder (including urine) ([1]; 30 min after administration): 1.35 ± 0.14 % ID/g
Radioactivity distribution Blood ([1]; 30 min after administration): 0.43 ± 0.05 % ID/g
Radioactivity distribution Fat ([1]; 30 min after administration): 0.12 ± 0.04 % ID/g
Radioactivity distribution Heart ([1]; 30 min after administration): 0.49 ± 0.01 % ID/g
Radioactivity distribution Kidney ([1]; 30 min after administration): 0.95 ± 0.06 % ID/g
Radioactivity distribution Large intestine ([1]; 30 min after administration): 0.19 ± 0.00 % ID/g
Radioactivity distribution Liver ([1]; 30 min after administration): 1.24 ± 0.09 % ID/g
Radioactivity distribution Lung ([1]; 30 min after administration): 0.76 ± 0.04 % ID/g
Radioactivity distribution Muscle (lower limbs) ([1]; 30 min after administration): 0.15 ± 0.01 % ID/g
Radioactivity distribution Remaining whole body ([1]; 30 min after administration): 0.31 ± 0.01 % ID/g
Radioactivity distribution Small intestine ([1]; 30 min after administration): 1.83 ± 0.07 % ID/g
Radioactivity distribution Spleen ([1]; 30 min after administration): 5.44 ± 1.82 % ID/g
Radioactivity distribution Stomach ([1]; 30 min after administration): 2.24 ± 0.39 % ID/g
Radioactivity distribution Testis ([1]; 30 min after administration): 0.12 ± 0.00 % ID/g
Radioactivity distribution Thyroid gland ([1]; 30 min after administration): 9.97 ± 0.74 % ID/g
Radioactivity distribution Whole brain ([1]; 30 min after administration): 0.02 ± 0.00 % ID/g
Adrenal gland/blood ratio of radioactivity accumulation ([1]; 60 min after administration): 29.41 ± 3.13
Adrenal gland/fat ratio of radioactivity accumulation ([1]; 60 min after administration): 105.17 ± 28.98
Adrenal gland/kidney ratio of radioactivity accumulation ([1]; 60 min after administration): 18.87 ± 3.12
Adrenal gland/liver ratio of radioactivity accumulation ([1]; 60 min after administration): 16.66 ± 3.13
Adrenal gland/muscle ratio of radioactivity accumulation ([1]; 60 min after administration): 95.38 ± 22.07
Adrenal gland/small intestine ratio of radioactivity accumulation ([1]; 60 min after administration): 6.64 ± 2.31
Radioactivity distribution Adrenal gland ([1]; 60 min after administration): 11.65 ± 1.54 % ID/g
Radioactivity distribution Bladder (including urine) ([1]; 60 min after administration): 1.27 ± 0.07 % ID/g
Radioactivity distribution Blood ([1]; 60 min after administration): 0.40 ± 0.01 % ID/g
Radioactivity distribution Fat ([1]; 60 min after administration): 0.11 ± 0.02 % ID/g
Radioactivity distribution Heart ([1]; 60 min after administration): 0.35 ± 0.03 % ID/g
Radioactivity distribution Kidney ([1]; 60 min after administration): 0.62 ± 0.08 % ID/g
Radioactivity distribution Large intestine ([1]; 60 min after administration): 0.43 ± 0.19 % ID/g
Radioactivity distribution Liver ([1]; 60 min after administration): 0.70 ± 0.05 % ID/g
Radioactivity distribution Lung ([1]; 60 min after administration): 0.60 ± 0.03 % ID/g
Radioactivity distribution Muscle (lower limbs) ([1]; 60 min after administration): 0.12 ± 0.02 % ID/g
Radioactivity distribution Remaining whole body ([1]; 60 min after administration): 0.33 ± 0.02 % ID/g
Radioactivity distribution Small intestine ([1]; 60 min after administration): 1.85 ± 0.44 % ID/g
Radioactivity distribution Spleen ([1]; 60 min after administration): 5.27 ± 0.89 % ID/g
Radioactivity distribution Stomach ([1]; 60 min after administration): 4.35 ± 0.25 % ID/g
Radioactivity distribution Testis ([1]; 60 min after administration): 0.15 ± 0.01 % ID/g
Radioactivity distribution Thyroid gland ([1]; 60 min after administration): 19.76 ± 1.03 % ID/g
Radioactivity distribution Whole brain ([1]; 60 min after administration): 0.02 ± 0.00 % ID/g
Radiochemical purity after incubation in human plasma [2]: 82%
SMILES: [123I]c1ccc2nc(-c3cncc(Cn4ccnc4)c3)n(C3CC3)c2c1 [[^123I] 602, 1-Cyclopropyl-2-[3-(1H-imidazol-1-ylmethyl)pyridin-5-yl]-6-[^123I]iodo-1H-benzimidazole]
B2/B1 accumulation ratio [3]: 2.06
B2 (PSL value, aldosterone-producing adenoma) ([3]; site 71a): 6142
B1 (PSL value, normal adrenal cortex) ([3]; site 72a): 2981

Reference: US10358434B2, “2-(3-pyridinyl)-1H-benzimidazole derivative compound and medicament containing same” (NIHON MEDI-PHYSICS CO., LTD., priority 2014, dated 2019)
